Each block holds one molecule with its values, some of them ahead of it. No end group written: not given here.
Tests used:
[1] = target: T1, PACAP-R2 (Homo sapiens, UniProt P32241); experiment: Cyclic AMP SPA on CHO cells transfected with PACAP-R2; format: cell-based; settings: cAMP SPA, concentration at which 50% of maximum PACAP27 activity is achieved, NA = no detectable activities, read-out: R2 EC50
T1 construct: expressed in transfected cells; host or cells: CHO cells
T1 sequence (P32241 31-457): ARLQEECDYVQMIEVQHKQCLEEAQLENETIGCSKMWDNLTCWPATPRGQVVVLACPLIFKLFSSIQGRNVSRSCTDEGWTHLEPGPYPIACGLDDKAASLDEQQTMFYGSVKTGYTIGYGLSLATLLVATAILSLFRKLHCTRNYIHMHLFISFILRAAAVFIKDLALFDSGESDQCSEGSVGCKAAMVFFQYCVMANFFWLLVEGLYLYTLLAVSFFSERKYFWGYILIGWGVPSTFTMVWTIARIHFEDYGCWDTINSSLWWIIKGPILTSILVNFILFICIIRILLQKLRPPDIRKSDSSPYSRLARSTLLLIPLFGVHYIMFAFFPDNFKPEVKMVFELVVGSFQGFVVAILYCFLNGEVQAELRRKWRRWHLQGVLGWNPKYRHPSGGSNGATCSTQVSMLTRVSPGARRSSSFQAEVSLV
Procedure, shortened: (§1)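 Intracellular cAMP, quantified by scintillation proximity assay, was measured after a 15-min, 37 °C peptide incubation containing IBMX (100 μM), bacitracin and soybean trypsin inhibitor. The cells were CHO transfected with PACAP-R2 or -R3. EC50 is set against maximal PACAP27 response.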

[2] = target: T2, PACAP-R3 (Homo sapiens, UniProt P41587); experiment: Cyclic AMP SPA on CHO cells expressing PACAP R3; format: cell-based; design: expressed in transfected cells; host or cells: CHO cells (Geneticin selection); settings: for EC50: cAMP SPA, CHO cells transfected with PACAP-R3, concentration at which 50% of maximum PACAP27 activity is achieved, NA = no detectable activities, read-out: R3 EC50; for R3 Selectivity: ratio of EC50 at R2 versus EC50 at R3
T2 sequence (P41587 24-438): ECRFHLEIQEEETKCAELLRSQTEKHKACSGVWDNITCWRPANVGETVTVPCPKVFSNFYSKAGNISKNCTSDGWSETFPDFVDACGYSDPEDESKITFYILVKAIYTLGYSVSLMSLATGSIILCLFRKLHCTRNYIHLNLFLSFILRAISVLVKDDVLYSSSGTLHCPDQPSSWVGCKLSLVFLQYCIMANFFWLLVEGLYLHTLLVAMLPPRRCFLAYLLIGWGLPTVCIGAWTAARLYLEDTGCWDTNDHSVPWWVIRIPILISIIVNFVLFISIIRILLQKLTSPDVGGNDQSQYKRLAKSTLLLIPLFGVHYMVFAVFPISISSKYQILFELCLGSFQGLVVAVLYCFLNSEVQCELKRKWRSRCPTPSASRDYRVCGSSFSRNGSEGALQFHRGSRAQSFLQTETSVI
Procedure, shortened: as §1

[3] = target: T3, PACAP-R3 (human, UniProt P41587 24-438); experiment: cell-based or functional assay
T3 sequence (looked up): T2 sequence (P41587 24-438)

Molecule: HSDAVFTDNYTRLRKQMARKKYLNSIQNRI [rR3P187]
EC50 [1]: > 130 nM
EC50 [2]: 1.6 nM
R3 Selectivity [2]: >80

Molecule: HSDAVFTDNYTRLRKQMARKKYLNSIRNRI [rR3P192]
EC50 [1]: 40 nM
EC50 [2]: 0.6 nM
R3 Selectivity [2]: 60

Molecule: HSDAVFTDNYTRLRKQMASKKYLNSIKNRI [rR3P178]
EC50 [1]: 80 nM
EC50 [2]: 0.75 nM
R3 Selectivity [2]: 110

Molecule: HSDAVFTDNYTRLRKQMASKKYLNSIPNRI [rR3P183]
EC50 [1]: > 150 nM
EC50 [2]: 5.4 nM
R3 Selectivity [2]: >30

Molecule: HSDAVFTDNYTRLRKQMASKKYLNSIQNRI [rR3P188]
EC50 [1]: 150 nM
EC50 [2]: 2.2 nM
R3 Selectivity [2]: 70

Molecule: HSDAVFTDNYTRLRKQMASKKYLNSIRNRI [rR3P193]
EC50 [1]: 200 nM
EC50 [2]: 1.9 nM
R3 Selectivity [2]: 110

Molecule: HSDAVFTDNYTRLRKQMAVKKYLNDILN [Peptide R3P48]
EC50 [1]: 1 nM
EC50 [2]: 0.13 nM
R3 Selectivity [2]: 8

Molecule: HSDAVFTDNYTRLRKQMAVKKYLNDLKKGGT [Peptide R3P14]
EC50 [1]: 50 nM
EC50 [2]: 17 nM
R3 Selectivity [2]: 3

Molecule: HSDAVFTDNYTRLRKQMAVKKYLNSIKK [Peptide R3P41]
EC50 [1]: 8 nM
EC50 [2]: 0.08 nM
R3 Selectivity [2]: 100

Molecule: HSDAVFTDNYTRLRKQMAVKKYLNSIKK-NH2 [Peptide R3P8]
EC50 [1]: 2 nM
EC50 [2]: 1.4 nM
R3 Selectivity [2]: 1.5

Molecule: HSDAVFTDNYTRLRKQMAVKKYLNSIKKK [Peptide R3P58]
EC50 [1]: 55 nM
EC50 [2]: 0.32 nM
R3 Selectivity [2]: 170

Molecule: HSDAVFTDNYTRLRKQMAVKKYLNSIKKKR [Peptide R3P57]
EC50 [1]: 42 nM
EC50 [2]: 0.23 nM
R3 Selectivity [2]: 190

Molecule: HSDAVFTDNYTRLRKQMAVKKYLNSIKKKRY [Peptide R3P56]
EC50 [1]: 40 nM
EC50 [2]: 0.4 nM
R3 Selectivity [2]: 100

Molecule: HSDAVFTDNYTRLRKQMAVKKYLNSILK [Peptide R3P43]
EC50 [1]: 0.8 nM
EC50 [2]: 0.08 nM
R3 Selectivity [2]: 10

Molecule: HSDAVFTDNYTRLRKQMAWKKYLNSIKNKR [Peptide R3P114]
EC50 [1]: 20 nM
EC50 [2]: 2 nM
R3 Selectivity [2]: 10

Molecule: HSDAVFTDNYTRLRKQMAYKKYLNSIKNKR [Peptide R3P115]
EC50 [1]: 300 nM
EC50 [2]: 6 nM
R3 Selectivity [2]: 50

Molecule: HSDAVFTDNYTRLRKQVAAKKYLNSIKK [Peptide R3P62]
EC50 [1]: 180 nM
EC50 [2]: 1.8 nM
R3 Selectivity [2]: 100

Molecule: HSDAVFTDNYTRLRKQVAAKKYLNSIKKKR [Peptide R3P78]
EC50 [1]: 250 nM
EC50 [2]: 1.1 nM
R3 Selectivity [2]: 230

Molecule: HSDAVFTDNYTRLRKQVAAKKYLNSIKNKRY [Peptide R3P68]
EC50 [1]: 130 nM
EC50 [2]: 0.5 nM
R3 Selectivity [2]: 260

Molecule: HSDAVFTDNYTRLRKQVAAKKYLNSIKNKRY [Peptide R3P79]
EC50 [1]: 100 nM
R3 Selectivity [2]: 200

Molecule: HSDAVFTDNYTRLRKQVAAKKYLQSIKNK [Peptide R3P86]
EC50 [1]: 90 nM
EC50 [2]: 0.8 nM
R3 Selectivity [2]: 110

Molecule: HSDAVFTDNYTRLRKQVAAKKYLQSILKK [Peptide R3P85]
EC50 [1]: 5 nM
EC50 [2]: 0.18 nM
R3 Selectivity [2]: 30

Molecule: HSDAVFTDNYTRLRKQVAAKKYLQSILKKR [Peptide R3P84]
EC50 [1]: 2.5 nM
EC50 [2]: 0.06 nM
R3 Selectivity [2]: 40

Molecule: HSDAVFTDNYTRLRKQVAAKKYLQSILNK [Peptide R3P94]
EC50 [1]: 9 nM
EC50 [2]: 0.09 nM
R3 Selectivity [2]: 100

Molecule: HSDAVFTDNYTRLRKQVAAKKYLQSILNKR [Peptide R3P93]
EC50 [1]: 6 nM
EC50 [2]: 0.14 nM
R3 Selectivity [2]: 40

Molecule: HSDAVFTDNYTRLRKQVAAKKYLQSILNKRY [Peptide R3P92]
EC50 [1]: 2 nM
EC50 [2]: 0.02 nM
R3 Selectivity [2]: 100

Molecule: HSDAVFTDNYTRLRKQVAVKKYLQSILKK [Peptide R3P89]
EC50 [1]: 0.9 nM
EC50 [2]: 0.06 nM
R3 Selectivity [2]: 15

Molecule: HSDAVFTDNYTRLRKQVAVKKYLQSILKKR [Peptide R3P88]
EC50 [1]: 0.89 nM
EC50 [2]: 0.08 nM
R3 Selectivity [2]: 12

Molecule: HSDAVFTDNYTRLRKQVAVKKYLQSILKKRY [Peptide R3P87]
EC50 [1]: 0.6 nM
EC50 [2]: 0.2 nM
R3 Selectivity [2]: 3

EC50 [1]: > 150 nM
EC50 [2]: 0.3 nM
R3 Selectivity [2]: >500
Molecule: HSDAVFTDQYTRLRKQLAAHKYLNTIKNKRY [Peptide R3P75]

EC50 [1]: 56 nM
EC50 [2]: 0.09 nM
R3 Selectivity [2]: 660
Molecule: HSDAVFTDQYTRLRKQMAAKKYLNSIKNKRY [Peptide R3P71]

EC50 [1]: 200 nM
EC50 [2]: 7 nM
R3 Selectivity [2]: 30
Molecule: HSDAVFTENYTKLRKQLAAKKYLNDLKK [Peptide R3P5]

Molecule: HSDAVFTENYTRLRKQMAVKKYLNSLKK-NH2 [Peptide R3P7]
EC50 [1]: 2 nM
EC50 [2]: 4 nM
R3 Selectivity [2]: 0.5

Molecule: HSDGIFTDKYSRYRKQMAVKKYLAAVL-NH2 [PAC9]
EC50 [1]: 0.9 nM
EC50 [2]: 0.7 nM
R3 Selectivity [2]: 1

Molecule: HSDGIFTDSYKRYRKQMAVKKYLAAVL-NH2 [PAC11]
EC50 [1]: 10 nM
EC50 [2]: 140 nM
R3 Selectivity [2]: 0.1

Molecule: HSDGIFTDSYSRKRKQMAVKKYLAAVL-NH2 [PAC13]
EC50 [1]: 3 nM
EC50 [2]: 0.5 nM
R3 Selectivity [2]: 6

Molecule: HSDGIFTDSYSRYEKQMAVKKYLAAVL-NH2 [PAC14]
EC50 [1]: 110 nM
EC50 [2]: 1.6 nM
R3 Selectivity [2]: 70

Molecule: HSDGIFTDSYSRYREQMAVKKYLAAVL-NH2 [PAC15]
EC50 [1]: 2.4 nM
EC50 [2]: 0.2 nM
R3 Selectivity [2]: 12

Molecule: HSDGIFTDSYSRYRKKMAVKKYLAAVL-NH2 [PAC16]
EC50 [1]: 0.2 nM
EC50 [2]: 0.2 nM
R3 Selectivity [2]: 1

Molecule: HSDGIFTDSYSRYRKQKAVKKYLAAVL-NH2 [PAC17]
EC50 [1]: 0.25 nM
EC50 [2]: 0.15 nM
R3 Selectivity [2]: 1.6

Molecule: HSDGIFTDSYSRYRKQMAVEKYLAAVL-NH2 [PAC20]
EC50 [1]: 20 nM
EC50 [2]: 0.7 nM
R3 Selectivity [2]: 30

Molecule: HSDGIFTDSYSRYRKQMAVKEYLAAVL-NH2 [PAC21]
EC50 [1]: 2.5 nM
EC50 [2]: 0.24 nM
R3 Selectivity [2]: 10

Molecule: HSDGIFTDSYSRYRKQMAVKKKLAAVL-NH2 [PAC22]
EC50 [1]: 2 nM
EC50 [2]: 15 nM
R3 Selectivity [2]: 0.1

Molecule: HSDGIFTDSYSRYRKQMAVKKYLAAKL-NH2 [PAC26]
EC50 [1]: 0.25 nM
EC50 [2]: 0.3 nM
R3 Selectivity [2]: 1

Molecule: HSDGIFTDSYSRYRKQMAVKKYLAAVK-NH2 [PAC27]
EC50 [1]: 1.5 nM
EC50 [2]: 1.1 nM
R3 Selectivity [2]: 1.4

Molecule: HSDGIFTDSYSRYRKQMAVKKYLAAVKKYLAAVRHG-NH2 [Peptide R3P17]
EC50 [1]: 9 nM
EC50 [2]: 4 nM
R3 Selectivity [2]: 2

Molecule: HSDGIFTDSYSRYRKQMAVKKYLAKVL-NH2 [PAC25]
EC50 [1]: 0.13 nM
EC50 [2]: 0.04 nM
R3 Selectivity [2]: 3

Molecule: HSDGIFTDSYSRYRKQMAVKKYLKAVL-NH2 [PAC24]
EC50 [1]: 0.3 nM
EC50 [2]: 0.2 nM
R3 Selectivity [2]: 1.5

Molecule: HSDGIFTDSYSRYRKQMAVKKYLSAVRHGQT-NH2 [Peptide R3P15]
EC50 [1]: 12 nM
EC50 [2]: 5 nM
R3 Selectivity [2]: 2

Molecule: HSDGIFTKSYSRYRKQMAVKKYLAAVL-NH2 [PAC8]
EC50 [1]: 43 nM
EC50 [2]: 47 nM
R3 Selectivity [2]: 1

Molecule: HSDKIFTDSYSRYRKQMAVKKYLAAVL-NH2 [PAC4]
EC50 [1]: 45 nM
EC50 [2]: 7 nM
R3 Selectivity [2]: 6

R3 EC50, nM (cAMP SPA) [3]: 0.2 nM
R3 Selectivity [3]: 300 ratio
Molecule: HSDAVFTDNYTRLRKQMAAKKYLNSIKNKV [R3P169]

R3 EC50, nM (cAMP SPA) [3]: 1 nM
Molecule: HSDAVFTDNYTRLRKQMAAKKYLNSIKNKS [R3P167]

R3 EC50, nM (cAMP SPA) [3]: 0.2 nM
R3 Selectivity [3]: 300 ratio
Molecule: HSDAVFTDNYTRLRKQMAAKKYLNSIKNKT [R3P168]

R3 EC50, nM (cAMP SPA) [3]: 0.5 nM
R3 Selectivity [3]: 300 ratio
Molecule: HSDAVFTDNYTRLRKQMAAKKYLNSIKNKP [R3P165]

Reference: patent US6972319B1, “Pituitary adenylate cyclase activating peptide (PACAP)receptor 3 (R3) agonists and their pharmacological methods of use” (priority 1999, dated 2005)
